Source: ChEMBL document CHEMBL3797079, “Synergistic reduction of HIV-1 infectivity by 5-azacytidine and inhibitors of ribonucleotide reductase” (Bioorg Med Chem, 2016)
The source made the active and inactive calls. The rule behind the calls is not given here.

Columns and labels:
U373-MAGI [1] = experiment: Effect on dRGU-TP level in human U373-MAGI cells at 50 uM preincubated for 2 hrs followed by 5-aza-dC addition measured after 4 hrs by LC-MS/MS analysis; type: functional, cell-based
[2] = test system: Human immunodeficiency virus 1; experiment: (§1) Potentiation of 5-Aza-C-induced antiviral activity against VSV-G pseudotyped HIV-1 NL4-3 infected in human U373-MAGI cells assessed as Pol mutation at 50 uM incubated for 4 hrs preinfection followed by 5-Aza-C addition for 2 hrs preinfection and subsequent viral infection measured at 72 hrs post infection by illumina sequencing method (reference value: 18.5%); type: functional
[3] = test system: Human immunodeficiency virus 1; experiment: Potentiation of 5-Aza-C-induced antiviral activity against VSV-G pseudotyped HIV-1 NL4-3 infected in human U373-MAGI cells assessed as reduction in U5-gag level at 50 uM after 2 to 72 hrs by qPCR method; type: functional, organism-based
U373-MAGI [4] = experiment: Reduction in dCTP level in human U373-MAGI cells at 50 uM preincubated for 2 hrs followed by 5-aza-dC addition measured after 4 hrs by LC-MS/MS analysis relative to 5-aza-dC; type: functional, cell-based
U373-MAGI [5] = experiment: Reduction in dRGU-TP level in human U373-MAGI cells at 200 uM preincubated for 2 hrs followed by 5-aza-C addition measured after 4 hrs by LC-MS/MS analysis; type: functional, cell-based
U373-MAGI [6] = experiment: Reduction in 5-aza-dCTP level in human U373-MAGI cells at 200 uM preincubated for 2 hrs followed by 5-aza-C addition measured after 4 hrs by LC-MS/MS analysis; type: functional, cell-based
[7] = test system: Human immunodeficiency virus 1; experiment: (§2) Antiviral activity against VSV-G pseudotyped HIV-1 NL4-3 infected in human U373-MAGI cells assessed as increase in frequency of G to C transversion at 50 uM incubated for 4 hrs prior to infection measured at 72 hrs post infection by illumina sequencing method relative to control; type: functional
U373-MAGI [8] = experiment: Reduction in dCTP level in human U373-MAGI cells at 50 uM after 6 hrs by LC-MS/MS analysis; type: functional, cell-based
U373-MAGI [9] = experiment: Reduction in 5-aza-dCTP level in human U373-MAGI cells at 50 uM preincubated for 2 hrs followed by 5-aza-C addition measured after 4 hrs by LC-MS/MS analysis; type: functional, cell-based
[10] = test system: Human immunodeficiency virus 1; experiment: as §1, with “5-Aza-dC-induced” for “5-Aza-C-induced”, “increase in total” for “Pol”, “mutation frequency” for “mutation”, “relative to control” for “(reference value: 18.5%)”; type: functional, organism-based
[11] = test system: Human immunodeficiency virus 1; experiment: Antiviral activity against VSV-G pseudotyped HIV-1 NL4-3 infected in human U373-MAGI cells assessed as increase in frequency of T to A transversion at 50 uM incubated for 4 hrs prior to infection measured at 72 hrs post infection by illumina sequencing method relative to control; type: functional
U373-MAGI [12] = experiment: Reduction in dTTP level in human U373-MAGI cells at 50 uM after 6 hrs by LC-MS/MS analysis; type: functional, cell-based
[13] = test system: Human immunodeficiency virus 1; experiment: Antiviral activity against VSV-G pseudotyped HIV-1 NL4-3 infected in human U373-MAGI cells assessed as increase in frequency of A to C transversion at 50 uM incubated for 4 hrs prior to infection measured at 72 hrs post infection by illumina sequencing method relative to control; type: functional
U373-MAGI [14] = experiment: Increase in 5-aza-dCTP/dCTP ratio in human U373-MAGI cells at 200 uM preincubated for 2 hrs followed by 5-aza-C addition measured after 4 hrs by LC-MS/MS analysis relative to 5-aza-C; type: functional, cell-based
U373-MAGI [15] = experiment: Reduction in dCTP level in human U373-MAGI cells at 50 uM preincubated for 2 hrs followed by 5-aza-C addition measured after 4 hrs by LC-MS/MS analysis; type: functional, cell-based
[16] = test system: Human immunodeficiency virus 1; experiment: as §1, with “5-Aza-dC-induced” for “5-Aza-C-induced”, “Gag” for “Pol”, “18.4%)” for “18.5%)”; type: functional
[17] = test system: Human immunodeficiency virus 1; experiment: as §1, with “5-Aza-dC-induced” for “5-Aza-C-induced”, “Nef” for “Pol”, “22.6%)” for “18.5%)”; type: functional
[18] = test system: Human immunodeficiency virus 1; experiment: Potentiation of 5-Aza-C-induced antiviral activity against VSV-G pseudotyped HIV-1 NL4-3 infected in human U373-MAGI cells assessed as decrease in 5-Aza-C EC50 at 50 uM preincubated for 2 hrs followed by 5-Aza-C addition for 2 hrs and subsequent viral infection measured at 72 hrs post infection by flow cytometric analysis relative to control; type: functional
[19] = test system: Human immunodeficiency virus 1; experiment: as §2, with “Potentiation of 5-Aza-dC-induced antiviral” for “Antiviral”, “of C to” for “of”, “G” for “G to C”, “preinfection followed by 5-Aza-C addition for 2 hrs preinfection and subsequent viral” for “prior to”; type: functional, organism-based
[20] = test system: Human immunodeficiency virus 1; experiment: as §2, with “Potentiation of 5-Aza-dC-induced antiviral” for “Antiviral”, “preinfection followed by 5-Aza-C addition for 2 hrs preinfection and subsequent viral” for “prior to”; type: functional, organism-based
[21] = test system: Human immunodeficiency virus 1; experiment: Antiviral activity against VSV-G pseudotyped HIV-1 NL4-3 infected in human U373-MAGI cells assessed as Nef mutation at 50 uM incubated for 4 hrs prior to infection measured at 72 hrs post infection by illumina sequencing method (reference value: 22.6%); type: functional
U373-MAGI [22] = experiment: Increase in 5-aza-dCTP/dCTP ratio in human U373-MAGI cells at 50 uM preincubated for 2 hrs followed by 5-aza-dC addition measured after 4 hrs by LC-MS/MS analysis relative to 5-aza-dC; type: functional, cell-based
[23] = test system: Human immunodeficiency virus 1; experiment: Antiviral activity against VSV-G pseudotyped HIV-1 NL4-3 infected in human U373-MAGI cells assessed as reduction in gag level at 50 uM measured at 6 hrs post infection by qPCR method; type: functional, organism-based
[24] = test system: Human immunodeficiency virus 1; experiment: as §1, with “5-Aza-dC-induced” for “5-Aza-C-induced”, “Vif” for “Pol”, “19.2%)” for “18.5%)”; type: functional
U373-MAGI [25] = experiment: Increase in 5-aza-dCTP/dCTP ratio in human U373-MAGI cells at 50 uM preincubated for 2 hrs followed by 5-aza-C addition measured after 4 hrs by LC-MS/MS analysis relative to 5-aza-C; type: functional, cell-based
[26] = test system: Human immunodeficiency virus 1; experiment: Potentiation of 5-Aza-C-induced antiviral activity against VSV-G pseudotyped HIV-1 NL4-3 infected in human U373-MAGI cells assessed as reduction in gag level at 50 uM after 2 to 72 hrs by qPCR method; type: functional, organism-based
[27] = test system: Human immunodeficiency virus 1; experiment: Antiviral activity against VSV-G pseudotyped HIV-1 NL4-3 infected in human U373-MAGI cells assessed as reduction in viral infectivity at 50 uM incubated for 4 hrs prior to viral infection measured at 72 hrs post infection by flow cytometric analysis; type: functional, organism-based
[28] = test system: Human immunodeficiency virus 1; experiment: Potentiation of 5-Aza-dC-induced antiviral activity against VSV-G pseudotyped HIV-1 NL4-3 infected in human U373-MAGI cells assessed as reduction in viral infectivity at 25 uM preincubated for 2 hrs followed by 5-Aza-dC addition for 2 hrs and subsequent viral infection measured at 72 hrs post infection by flow cytometric analysis; type: functional, organism-based
[29] = test system: Human immunodeficiency virus 1; experiment: Antiviral activity against VSV-G pseudotyped HIV-1 NL4-3 infected in human U373-MAGI cells assessed as reduction in U5-gag level at 50 uM measured at 6 hrs post infection by qPCR method; type: functional, organism-based
[30] = Cytotoxicity against human U373-MAGI cells at 50 uM measured at 72 hrs by Celltiter-Glo luminescent cell viability assay; type: cell-based

Oc1ccc(/C=C/c2cc(O)cc(O)c2)cc1 [RESVERATROL]
Activity (U373-MAGI [1]): inactive
Activity [2]: 21.9%
Activity [3]: Active
Activity (U373-MAGI [4]): Active
Activity (U373-MAGI [5]): Active
Activity (U373-MAGI [6]): Active
fold change (FC) [7]: 2
Activity (U373-MAGI [8]): inactive
Activity (U373-MAGI [9]): inactive
Activity [10]: inactive
fold change (FC) [11]: 1.8
Activity (U373-MAGI [12]): inactive
fold change (FC) [13]: 1.8
Activity (U373-MAGI [14]): inactive
Activity (U373-MAGI [15]): Active
Activity [16]: 15.7%
Activity [17]: 20.3%
fold change (FC) [18]: 2.5
Activity [19]: inactive
Activity [20]: inactive
Activity [21]: 18.5%
Activity (U373-MAGI [22]): Active
Activity [23]: Active
Activity [24]: 25.1%
Activity (U373-MAGI [25]): Active
Activity [26]: Active
Activity [27]: Active
Activity [28]: Active
Activity [29]: Active
Activity [30]: Non-toxic
